Measurements from ChEMBL document CHEMBL1201862, “PubChem BioAssay data set” (2004).
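Assay format: 96-well plates, 48-hour exposure. At the GI50, growth is halved.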 Activity calls are given as the source filed them. Rule as the data show it: active = GI50 up to about 1.1 µM and inactive = higher.

Tests used:
Test in all cases: growth of human tumour cells (NCI), 48 h
[1] = test system: HT-29
[2] = test system: OVCAR-3
[3] = test system: SN12C
[4] = test system: SR
[5] = test system: 786-0
[6] = test system: A549
[7] = test system: OVCAR-8
[8] = test system: KM12
[9] = test system: SK-MEL-2
[10] = test system: HOP-62
[11] = test system: SNB-19
[12] = test system: NCI-H460
[13] = test system: OVCAR-5
[14] = test system: SF-295
[15] = test system: SK-MEL-28
[16] = test system: SF-268
[17] = test system: SW-620
[18] = test system: IGROV-1
[19] = test system: HL-60
[20] = test system: RXF 393

Row | Compound | GI50 [1] | GI50 [2] | GI50 [3] | GI50 [4] | GI50 [5] | GI50 [6] | GI50 [7] | GI50 [8] | GI50 [9] | GI50 [10] | GI50 [11] | GI50 [12] | GI50 [13] | GI50 [14] | GI50 [15] | GI50 [16] | GI50 [17] | GI50 [18] | GI50 [19] | GI50 [20]
1 | O=C(CC(O)c1cccnc1)CC(O)c1cccnc1 (configuration not stated) | 7.05 µM (inactive) | 14.7 µM (inactive) | 18.6 µM (inactive) | 2.78 µM (inactive) | 16.3 µM (inactive) | 20.6 µM (inactive) | 15.3 µM (inactive) | 11.1 µM (inactive) | 18.9 µM (inactive) | 21.9 µM (inactive) | 21.7 µM (inactive) | 19.7 µM (inactive) | 24.2 µM (inactive) | 15.4 µM (inactive) | 19.5 µM (inactive) | 25.5 µM (inactive) | 4.97 µM (inactive) | 14.8 µM (inactive) | 3.17 µM (inactive) | 16.7 µM (inactive)
2 | CN1C2CCC1CC(CCNC(c1ccccc1)c1ccccc1)C2 (configuration not stated) | 15.2 µM (inactive) | 47.4 µM (inactive) | 83 µM (inactive) | 15.3 µM (inactive) | 17.5 µM (inactive) | 71 µM (inactive) | 57 µM (inactive) | 44 µM (inactive) | 16.7 µM (inactive) | 19.7 µM (inactive) | > 100 µM (inactive) | 83.9 µM (inactive) | > 100 µM (inactive) | 22.5 µM (inactive) | 17.3 µM (inactive) | 35.3 µM (inactive) | 79.6 µM (inactive) | 62.7 µM (inactive) | 31 µM (inactive) | 14.4 µM (inactive)
3 | C#CC1(O)C(COP(=O)(O)OC(COCCCCCCCCCCCCCCCCCC)COP(=O)(O)OCC2OC(n3cc(C)c(=O)[nH]c3=O)CC2N=[N+]=[N-])OC(n2ccc(N)nc2=O)C1O (configuration not stated) | 1.16 µM (inactive) | 4.58 µM (inactive) | 0.807 µM (active) | < 0.0429 µM (active) | 0.706 µM (active) | 0.29 µM (active) | 0.881 µM (active) | 0.891 µM (active) | 0.382 µM (active) | 1.82 µM (inactive) | 1.8 µM (inactive) | 0.0843 µM (active) | 3.28 µM (inactive) | 0.221 µM (active) | 2.31 µM (inactive) | 0.957 µM (active) | 0.453 µM (active) | 0.381 µM (active) | 0.617 µM (active) | 1.37 µM (inactive)
4 | NS(=O)(=O)c1ccc(NNc2c3ccccc3nc3c(C(=O)Nc4ccc(S(N)(=O)=O)cc4)cccc23)cc1 | 26.9 µM (inactive) | 23 µM (inactive) | 31.5 µM (inactive) | 9.42 µM (inactive) | 15.6 µM (inactive) | > 100 µM (inactive) | 26.5 µM (inactive) | 27.9 µM (inactive) | 13 µM (inactive) | 57.3 µM (inactive) | 33.5 µM (inactive) | 24.2 µM (inactive) | 62.7 µM (inactive) | 37.7 µM (inactive) | 48.6 µM (inactive) | 16.2 µM (inactive) | 15.3 µM (inactive) | 19.3 µM (inactive) | 22.3 µM (inactive) | 6.73 µM (inactive)
5 | CCc1cccc(CC)c1NC1=CC(=O)C(=O)c2ccccc21 | 2.06 µM (inactive) | 2.84 µM (inactive) | 27.5 µM (inactive) | 29.9 µM (inactive) | 18.9 µM (inactive) | 18.6 µM (inactive) | 16.7 µM (inactive) | 15.4 µM (inactive) | 14.6 µM (inactive) | 19.5 µM (inactive) | 23 µM (inactive) | 19 µM (inactive) | 17.1 µM (inactive) | 13 µM (inactive) | 15.6 µM (inactive) | 22.5 µM (inactive) | 16.5 µM (inactive) | 15.1 µM (inactive) | > 100 µM (inactive) | 23.9 µM (inactive)
6 | CN(C)c1ccc(C=C2C(=O)OC(C)(C)OC2=O)cc1Br | > 100 µM (inactive) | > 100 µM (inactive) | > 100 µM (inactive) | 59.6 µM (inactive) | > 100 µM (inactive) | > 100 µM (inactive) | > 100 µM (inactive) | > 100 µM (inactive) | > 100 µM (inactive) | > 100 µM (inactive) | > 100 µM (inactive) | > 100 µM (inactive) | > 100 µM (inactive) | > 100 µM (inactive) | > 100 µM (inactive) | > 100 µM (inactive) | > 100 µM (inactive) |  | 41.1 µM (inactive) | > 100 µM (inactive)
7 | COC(=O)CCC(=O)CC(=O)C1=NS(=O)(=O)c2nc(S(N)(=O)=O)c(Cl)cc2N1 | > 100 µM (inactive) | > 100 µM (inactive) | > 100 µM (inactive) | > 100 µM (inactive) | > 10 µM (inactive) | > 100 µM (inactive) | > 100 µM (inactive) | > 100 µM (inactive) | > 100 µM (inactive) | > 100 µM (inactive) | > 100 µM (inactive) | > 100 µM (inactive) | > 100 µM (inactive) | > 100 µM (inactive) | > 100 µM (inactive) | > 100 µM (inactive) |  | > 100 µM (inactive) | > 100 µM (inactive) | > 100 µM (inactive)
8 | CCOC(=O)C(C(=O)OCC)c1ccc([N+](=O)[O-])o1 | 14 µM (inactive) | 5.73 µM (inactive) | 18 µM (inactive) | 6.93 µM (inactive) | 6.64 µM (inactive) | 21.5 µM (inactive) | 5.24 µM (inactive) | 17.5 µM (inactive) | 18.6 µM (inactive) | > 50 µM (inactive) | > 100 µM (inactive) | 20.3 µM (inactive) | 18.2 µM (inactive) | 20.6 µM (inactive) | 14.1 µM (inactive) | 25.4 µM (inactive) | 3.39 µM (inactive) | 20.3 µM (inactive) | 2.65 µM (inactive) | 12.4 µM (inactive)
9 | COC1(OC)C2(Cl)C(Cl)=C(Cl)C1(Cl)C1COCC12 (configuration not stated) | > 100 µM (inactive) | > 100 µM (inactive) | > 100 µM (inactive) | > 75.3 µM (inactive) | > 100 µM (inactive) | > 100 µM (inactive) | > 100 µM (inactive) | > 100 µM (inactive) | > 100 µM (inactive) | > 100 µM (inactive) | > 100 µM (inactive) | > 100 µM (inactive) | > 100 µM (inactive) | > 100 µM (inactive) | > 38.7 µM (inactive) | > 100 µM (inactive) | > 100 µM (inactive) | > 100 µM (inactive) | > 61.4 µM (inactive) | > 100 µM (inactive)
10 | CCOC(=O)c1cc(-c2ccc(OC)c(OC)c2)cn1C | > 10 µM (inactive) | > 10 µM (inactive) | > 10 µM (inactive) | > 10 µM (inactive) | > 10 µM (inactive) | > 10 µM (inactive) | > 10 µM (inactive) | > 10 µM (inactive) | > 10 µM (inactive) | > 10 µM (inactive) | > 10 µM (inactive) | > 10 µM (inactive) | > 10 µM (inactive) | > 10 µM (inactive) | > 10 µM (inactive) | > 10 µM (inactive) |  | > 10 µM (inactive) | > 10 µM (inactive) | > 10 µM (inactive)
11 | COC(=O)C1=CC2OC1(C)CCC2=O (configuration not stated) | > 100 µM (inactive) | > 100 µM (inactive) | > 100 µM (inactive) | 45.9 µM (inactive) | > 100 µM (inactive) | > 100 µM (inactive) | 50.1 µM (inactive) | > 100 µM (inactive) | > 100 µM (inactive) | > 100 µM (inactive) | > 100 µM (inactive) | > 100 µM (inactive) | > 100 µM (inactive) | > 100 µM (inactive) | > 100 µM (inactive) | > 100 µM (inactive) | 74.6 µM (inactive) | > 100 µM (inactive) | 26.9 µM (inactive) | > 100 µM (inactive)
12 | CN1C=C(C(N)=O)Cc2ccsc21 | > 100 µM (inactive) | > 100 µM (inactive) | > 100 µM (inactive) | > 100 µM (inactive) | > 100 µM (inactive) | > 100 µM (inactive) | > 100 µM (inactive) | > 100 µM (inactive) | > 100 µM (inactive) | > 100 µM (inactive) | > 100 µM (inactive) | > 100 µM (inactive) | > 100 µM (inactive) | > 100 µM (inactive) | > 100 µM (inactive) | > 100 µM (inactive) | > 100 µM (inactive) | > 100 µM (inactive) | > 100 µM (inactive) | > 100 µM (inactive)
13 | CN(CCCN=C=S)CCCN1c2ccccc2CCc2ccccc21 | 1.51 µM (inactive) | 1.66 µM (inactive) | 1.69 µM (inactive) | 0.456 µM (active) | 1.64 µM (inactive) | 1.71 µM (inactive) | 1.78 µM (inactive) | 1.73 µM (inactive) | 1.86 µM (inactive) | 1.83 µM (inactive) | 1.72 µM (inactive) | 1.82 µM (inactive) | 1.81 µM (inactive) | 1.71 µM (inactive) | 2.06 µM (inactive) | 1.71 µM (inactive) | 2.23 µM (inactive) | 1.79 µM (inactive) | 1.94 µM (inactive) | 1.92 µM (inactive)
14 | CC(C)(C1=NC(C(C)(C)C)CO1)C1=N[C@@H](C(C)(C)C)CO1 (some centres not stated) | > 100 µM (inactive) | > 100 µM (inactive) | > 100 µM (inactive) | > 100 µM (inactive) | > 100 µM (inactive) | > 100 µM (inactive) | > 100 µM (inactive) | > 100 µM (inactive) | > 100 µM (inactive) | > 100 µM (inactive) | > 100 µM (inactive) | > 100 µM (inactive) | > 100 µM (inactive) | > 100 µM (inactive) | > 100 µM (inactive) | > 100 µM (inactive) | > 100 µM (inactive) | > 100 µM (inactive) | > 100 µM (inactive) | > 100 µM (inactive)
